From PubChem BioAssay AID1845216 (Molecular Pharmacology Branch, DTP, NCI, 2023)

Test system: SW 982 tumor spheroid viability
Experiment: Anticancer human tumor SW 982 cell line growth inhibition;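 note: spheroids exposed to compound for 7 days before readout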
Details: spheroids with HUVEC and MSC; for IC50: curve of first compound; for viability, T/C: stronger effect = lower value
Method in brief: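 Complex tumor spheroids combined malignant cells with endothelial cells and mesenchymal stem cells. DNA-damaging drugs and DNA repair inhibitors were tested alone and in combination, at half-log dilutions down from clinical Cmax (top 10 microM if Cmax unknown), 0.25% DMSO final.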

[1] = second compound 1 µM, first compound 0.0316 µM
[2] = second compound 1 µM, first compound 0.1 µM
[3] = second compound 1 µM, first compound 0.316 µM
[4] = second compound 1 µM, first compound 1 µM
[5] = second compound 1 µM, first compound 3.16 µM
[6] = second compound 1 µM, first compound 10 µM
[7] = second compound 3.16 µM, first compound 0.0316 µM
[8] = second compound 3.16 µM, first compound 0.1 µM
[9] = second compound 3.16 µM, first compound 0.316 µM
[10] = second compound 3.16 µM, first compound 1 µM
[11] = second compound 3.16 µM, first compound 3.16 µM
[12] = second compound 3.16 µM, first compound 10 µM
[13] = second compound 10 µM, first compound 0.0316 µM
[14] = second compound 10 µM, first compound 0.1 µM
[15] = second compound 10 µM, first compound 0.316 µM
[16] = second compound 10 µM, first compound 1 µM
[17] = second compound 10 µM, first compound 3.16 µM
[18] = second compound 10 µM, first compound 10 µM
[19] = second compound 31.6 µM, first compound 0.0316 µM
[20] = second compound 31.6 µM, first compound 0.1 µM
[21] = second compound 31.6 µM, first compound 0.316 µM
[22] = second compound 31.6 µM, first compound 1 µM
[23] = second compound 31.6 µM, first compound 3.16 µM
[24] = second compound 31.6 µM, first compound 10 µM
[25] = second compound 100 µM, first compound 0.0316 µM
[26] = second compound 100 µM, first compound 0.1 µM
[27] = second compound 100 µM, first compound 0.316 µM
[28] = second compound 100 µM, first compound 1 µM
[29] = second compound 100 µM, first compound 3.16 µM
[30] = second compound 100 µM, first compound 10 µM

SMILES	IC50 (second compound 1 µM) [µM]	IC50 (second compound 3.16 µM) [µM]	IC50 (second compound 10 µM) [µM]	IC50 (second compound 31.6 µM) [µM]	IC50 (second compound 100 µM) [µM]	viability, T/C [1] [%]	viability, T/C [2] [%]	viability, T/C [3] [%]	viability, T/C [4] [%]	viability, T/C [5] [%]	viability, T/C [6] [%]	viability, T/C [7] [%]	viability, T/C [8] [%]	viability, T/C [9] [%]	viability, T/C [10] [%]	viability, T/C [11] [%]	viability, T/C [12] [%]	viability, T/C [13] [%]	viability, T/C [14] [%]	viability, T/C [15] [%]	further results
CC(C)n1c(=O)n(C)c2cnc3cc(F)c(-c4ccc(OCCCN5CCCCC5)nc4)cc3c21 + Cn1nnc2c(C(N)=O)ncn2c1=O	> 10	7.44	4.91	3.72	1.88	91.7	91.3	91.5	85.4	68.1	56.7	91	84	85.8	84.2	66.4	44.3	75.2	75.5	78.5	viability, T/C [16]: 72.7%; viability, T/C [17]: 55.8%; viability, T/C [18]: 40.6%; viability, T/C [19]: 68.3%; viability, T/C [20]: 70%; viability, T/C [21]: 68.8%; viability, T/C [22]: 62%; viability, T/C [23]: 52.5%; viability, T/C [24]: 35%; viability, T/C [25]: 55.1%; viability, T/C [26]: 57.4%; viability, T/C [27]: 55.2%; viability, T/C [28]: 54%; viability, T/C [29]: 46.4%; viability, T/C [30]: 37%
CC1COCCN1c1cc(-c2ccnn2C)c2ccnc(-c3ccn[nH]3)c2n1 (stereo not given) + Cn1nnc2c(C(N)=O)ncn2c1=O	< 0.0316	< 0.0316	< 0.0316	< 0.0316	< 0.0316	32.4	20.4	17.3	15.4	19.2	23	26.9	17	15.8	17	19.7	22.5	21.1	16.6	13	viability, T/C [16]: 13.3%; viability, T/C [17]: 22.9%; viability, T/C [18]: 20.3%; viability, T/C [19]: 20.6%; viability, T/C [20]: 15.8%; viability, T/C [21]: 13.1%; viability, T/C [22]: 11.8%; viability, T/C [23]: 12.5%; viability, T/C [24]: 18.2%; viability, T/C [25]: 15%; viability, T/C [26]: 12.8%; viability, T/C [27]: 10.3%; viability, T/C [28]: 9.31%; viability, T/C [29]: 11.1%; viability, T/C [30]: 14.6%
COc1cc(C)[nH]c(=O)c1CN1CCc2c(Cl)cc(C(OC)C3COC3)c(Cl)c2C1=O (stereo not given) + Cn1nnc2c(C(N)=O)ncn2c1=O	> 10	> 10	> 10	> 10	> 10	101	103	103	113	101	99.7	94.3	92.4	96	102	100	93.1	81.8	83.5	86.2	viability, T/C [16]: 88.3%; viability, T/C [17]: 85.8%; viability, T/C [18]: 78.3%; viability, T/C [19]: 71.1%; viability, T/C [20]: 71.7%; viability, T/C [21]: 70.4%; viability, T/C [22]: 78.8%; viability, T/C [23]: 70%; viability, T/C [24]: 69.1%; viability, T/C [25]: 58.6%; viability, T/C [26]: 62.3%; viability, T/C [27]: 65%; viability, T/C [28]: 64.3%; viability, T/C [29]: 64.6%; viability, T/C [30]: 61.9%
COc1ccc([C@@H](O)c2cc(-c3ncnc4cc(N5CCOCC5)ccc34)c(F)cc2Cl)nn1 + Cn1nnc2c(C(N)=O)ncn2c1=O	6.29	3.83	4.03	1.18	0.283	90.6	95.4	93.3	84.9	81.6	29.6	76.7	83.8	90.1	70.4	55.9	26	76.9	70	73	viability, T/C [16]: 57.6%; viability, T/C [17]: 63.2%; viability, T/C [18]: 18.4%; viability, T/C [19]: 63.5%; viability, T/C [20]: 63.2%; viability, T/C [21]: 60.4%; viability, T/C [22]: 51.5%; viability, T/C [23]: 38.5%; viability, T/C [24]: 25.5%; viability, T/C [25]: 59.9%; viability, T/C [26]: 57.9%; viability, T/C [27]: 48.1%; viability, T/C [28]: 39.3%; viability, T/C [29]: 32.5%; viability, T/C [30]: 15.6%
Cc1cc(C)c(CNC(=O)c2cc(-c3ccc(CN4CCOCC4)cc3)cc3c2cnn3C2CCCC2)c(=O)[nH]1 + Cn1nnc2c(C(N)=O)ncn2c1=O	> 10	> 10	> 10	> 10	> 10	102	104	103	103	92.1	91.2	88.4	99.2	101	96.6	92.3	70.6	86.7	82.6	81.3	viability, T/C [16]: 82.8%; viability, T/C [17]: 82.2%; viability, T/C [18]: 53.4%; viability, T/C [19]: 73.8%; viability, T/C [20]: 69%; viability, T/C [21]: 74.9%; viability, T/C [22]: 73.5%; viability, T/C [23]: 74.4%; viability, T/C [24]: 58.7%; viability, T/C [25]: 58.9%; viability, T/C [26]: 63%; viability, T/C [27]: 57.7%; viability, T/C [28]: 63.5%; viability, T/C [29]: 55.3%; viability, T/C [30]: 53.8%
[2H]c1nc(C)nc([2H])c1-c1cc(NC[C@@H](C)c2cccc3c(C(=O)NC)ccnc23)ncn1 + Cn1nnc2c(C(N)=O)ncn2c1=O	> 10	> 10	> 10	> 10	> 10	100	102	92.6	103	106	82.3	92.6	86.4	96	86.8	63.9	55.1	83.8	76	78.5	viability, T/C [16]: 80.7%; viability, T/C [17]: 71.7%; viability, T/C [18]: 59.8%; viability, T/C [19]: 69.5%; viability, T/C [20]: 76.2%; viability, T/C [21]: 76.8%; viability, T/C [22]: 72.5%; viability, T/C [23]: 76.5%; viability, T/C [24]: 71.2%; viability, T/C [25]: 63.5%; viability, T/C [26]: 63.4%; viability, T/C [27]: 58%; viability, T/C [28]: 60.9%; viability, T/C [29]: 56.9%; viability, T/C [30]: 60.7%
